# In PMC5618656, “Interference of Paraben Compounds with Estrogen Metabolism by Inhibition of 17β-Hydroxysteroid Dehydrogenases” (International Journal of Molecular Sciences, 2017):
# Where two headings read alike, the source gives them in different places.
# Tests used:
# [1] = target: T1, 17β-hydroxysteroid dehydrogenase 2 (17β-HSD2) (Homo sapiens, UniProt P37059); assay: radiolabeled estradiol to estrone conversion in lysates of HEK-293 cells transfected with human […]β-HSD2; format: biochemical
# T1 construct: gene HSD17B2
# T1 sequence (P37059 1-387): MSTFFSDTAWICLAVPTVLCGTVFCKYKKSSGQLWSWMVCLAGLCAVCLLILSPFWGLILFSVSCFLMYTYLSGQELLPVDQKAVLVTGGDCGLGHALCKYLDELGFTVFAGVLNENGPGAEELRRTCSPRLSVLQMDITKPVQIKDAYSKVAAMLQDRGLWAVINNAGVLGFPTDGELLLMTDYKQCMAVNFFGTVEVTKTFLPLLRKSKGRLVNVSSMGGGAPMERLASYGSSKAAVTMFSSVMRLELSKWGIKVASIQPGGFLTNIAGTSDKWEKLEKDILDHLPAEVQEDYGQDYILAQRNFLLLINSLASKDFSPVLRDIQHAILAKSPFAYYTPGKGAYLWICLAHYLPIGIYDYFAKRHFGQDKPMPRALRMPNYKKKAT
# [2] = target: T2, 17β-hydroxysteroid dehydrogenase 1 (17β-HSD1) (Homo sapiens, UniProt P14061); assay: biochemical; design: species or system HEK-293 (transiently transfected); Radiolabeled estrone to estradiol conversion (200 nM, NADPH) in lysates of 17β-HSD1-transfected cells; TLC and scintillation counting
# T2 construct: gene HSD17B1
# T2 sequence (P14061 2-328): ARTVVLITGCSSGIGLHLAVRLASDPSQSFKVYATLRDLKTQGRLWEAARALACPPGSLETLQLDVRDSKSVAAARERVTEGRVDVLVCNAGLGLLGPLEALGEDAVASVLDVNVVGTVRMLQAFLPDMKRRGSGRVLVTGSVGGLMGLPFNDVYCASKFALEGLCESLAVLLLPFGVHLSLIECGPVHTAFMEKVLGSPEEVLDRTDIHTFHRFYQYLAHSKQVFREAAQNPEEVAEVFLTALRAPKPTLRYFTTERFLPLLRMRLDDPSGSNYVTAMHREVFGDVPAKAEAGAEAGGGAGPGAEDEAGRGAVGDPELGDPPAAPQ
# Protocol: Lysate activity assays were performed as previously described. Briefly, HEK-293 cells (ATCC) were transiently transfected with expression constructs for human 17β-HSD1 or 17β-HSD2 using the calcium phosphate precipitation method. Lysates of HEK-293 cells expressing 17β-HSD1 or 17β-HSD2 were incubated at 37 °C for 10 min in TS2 buffer (100 mM NaCl, 1 mM EDTA, 1 mM EGTA, 250 mM sucrose, 1 mM MgCl2, 20 mM Tris-HCl, pH 7.4), containing either the inhibitor at the respective concentration or solvent (0.2% DMSO). 17β-HSD1 activity was determined in the presence of 200 nM estrone, including 50 nCi of [2,4,6,7-^3H]-estrone and 500 μM NADPH. Whereas, the 17β-HSD2 activity was performed in the presence of 200 nM estrone, including 50 nCi of [2,4,6,7-^3H]-estradiol and 500 μM NAD+.  Figure 6 (A) Inhibition of 17β-HSD1 activity by parabens. 17β-HSD1 activity was measured in lysates of transiently-transfected HEK-293 cells, using DMSO as a negative, and apigenin as a positive, control. Statistical analyses were performed using one-way ANOVA followed by a Dunnett post-hoc test. […] (B) Concentration-dependent inhibition of 17β-HSD1 by [compound left out]- and heptylparaben. The conversion of estrone to estradiol was measured in lysates of HEK-293 cells transfected with 17β-HSD1 and (C) in intact human COV434 granulosa cells endogenously expressing 17β-HSD1. Results represent the mean ± SD of three independent experiments. To determine 17β-HSD1 activity in COV434 cells, cells were seeded (50,000) into 96-well plates and incubated for 90 min with 200 nM estrone, including 50 nCi of [2,4,6,7-^3H]-estrone in serum-free charcoal treated media containing either the inhibitor at the respective concentration or solvent (0.1% DMSO). Both activity essays were stopped by adding a 1:1 ratio of 2 mM unlabeled estrone and estradiol in methanol. Radiolabeled steroids were obtained from Perkin-Elmer (Boston, MA, USA) whereas normal steroids and cofactors were purchased from Sigma-Aldrich. Estrogens were separated by thin layer chromatography and samples were analyzed using scintillation counting. All data were collected from at least three independent measurements.
# [3] = target: T1, 17β-hydroxysteroid dehydrogenase 2 (17β-HSD2); assay: biochemical; design: species or system HEK-293 (transiently transfected); Radiolabeled estradiol to estrone conversion (200 nM, NAD+) in lysates of 17β-HSD2-transfected cells; TLC and scintillation counting
# Protocol: Lysate activity assays were performed as previously described. Briefly, HEK-293 cells (ATCC) were transiently transfected with expression constructs for human 17β-HSD1 or 17β-HSD2 using the calcium phosphate precipitation method. Lysates of HEK-293 cells expressing 17β-HSD1 or 17β-HSD2 were incubated at 37 °C for 10 min in TS2 buffer (100 mM NaCl, 1 mM EDTA, 1 mM EGTA, 250 mM sucrose, 1 mM MgCl2, 20 mM Tris-HCl, pH 7.4), containing either the inhibitor at the respective concentration or solvent (0.2% DMSO). 17β-HSD1 activity was determined in the presence of 200 nM estrone, including 50 nCi of [2,4,6,7-^3H]-estrone and 500 μM NADPH. Whereas, the 17β-HSD2 activity was performed in the presence of 200 nM estrone, including 50 nCi of [2,4,6,7-^3H]-estradiol and 500 μM NAD+.  Figure 4 (A) Inhibition of estrone formation by parabens in human embryonic kidney (HEK-293) cell lysates expressing human 17β-HSD2. The conversion of estradiol to estrone was measured in lysates of HEK-293 cells transiently transfected with 17β-HSD2 in the presence of 200 nM radiolabeled estradiol and parabens or paraben-like compounds at a final concentration of 20 µM. 17β-HSD2 inhibitor BM13 served as positive control (compound 22 in [18]). Statistical analyses were performed using one-way analysis of variance (ANOVA) test followed by a Dunnett post-hoc test. […] (B) Concentration-dependent inhibition of 17β-HSD2 by ethylparaben and ethyl vanillate. Results represent the mean ± standard deviation (SD) of three independent measurements. To determine 17β-HSD1 activity in COV434 cells, cells were seeded (50,000) into 96-well plates and incubated for 90 min with 200 nM estrone, including 50 nCi of [2,4,6,7-^3H]-estrone in serum-free charcoal treated media containing either the inhibitor at the respective concentration or solvent (0.1% DMSO). Both activity essays were stopped by adding a 1:1 ratio of 2 mM unlabeled estrone and estradiol in methanol. Radiolabeled steroids were obtained from Perkin-Elmer (Boston, MA, USA) whereas normal steroids and cofactors were purchased from Sigma-Aldrich. Estrogens were separated by thin layer chromatography and samples were analyzed using scintillation counting. All data were collected from at least three independent measurements.
# [4] = target: T2, 17β-hydroxysteroid dehydrogenase 1 (17β-HSD1); assay: radiolabeled estrone to estradiol conversion in lysates of transfected HEK-293 cells; also intact COV434 cells (IC50 […]); format: biochemical
# [5] = target: T1, 17β-hydroxysteroid dehydrogenase 2 (17β-HSD2); assay: radiolabeled estradiol conversion in lysates of transfected HEK-293 cells at […]; also significant at […]; format: cell-based; conditions: HEK293
# [6] = target: T1, 17β-hydroxysteroid dehydrogenase 2 (17β-HSD2); assay: radiolabeled estradiol conversion in lysates of transfected HEK-293 cells, single concentration […]; format: cell-based; conditions: HEK293
# [7] = target: T2, 17β-hydroxysteroid dehydrogenase 1 (17β-HSD1); assay: radiolabeled estrone conversion in lysates of transfected HEK-293 cells, single concentration […]; format: cell-based; conditions: HEK293
# [8] = target: T2, 17β-hydroxysteroid dehydrogenase 1 (17β-HSD1); assay: radiolabeled estrone to estradiol conversion in lysates of transfected HEK-293 cells; also intact COV434 cells (IC50 […]); format: biochemical; remark: listed apart in the source
inhibition at 20 µM [2],inhibition at 20 µM [3],SMILES,also measured
7 ± 6%,74 ± 4%,"CCOC(=O)c1ccc(O)cc1 [2-P, ethylparaben]",IC50 [1]: 4.6 µM
32 ± 9%,60 ± 1%,CC(C)OC(=O)c1ccc(O)cc1 [isopropylparaben],–
80 ± 5%,–,"CCCCCCOC(=O)c1ccc(O)cc1 [6-P, hexylparaben]",IC50 [4]: 2.6 µM; inhibition at 20 µM [5]: 58%
35 ± 1%,–,O=C(Oc1ccccc1)c1ccc(O)cc1 [phenylparaben],inhibition at 20 µM [6]: 64%
0%,50 ± 6%,COC(=O)c1ccc(O)cc1 [methylparaben],–
52 ± 10%,30 ± 7%,CCCCOC(=O)c1ccc(O)cc1 [butylparaben],–
–,–,CCOC(=O)c1ccc(O)c(OC)c1 [ethyl vanillate],IC50 [1]: 1.3 µM
7 ± 11%,0%,O=C(O)c1ccc(O)cc1 [p-hydroxybenzoic acid],–
–,53 ± 7%,CC(C)COC(=O)c1ccc(O)cc1 [isobutylparaben],inhibition at 20 µM [7]: 65%
–,–,O=C(OCc1ccccc1)c1ccc(O)cc1 [benzylparaben],inhibition at 20 µM [6]: 64%; inhibition at 20 µM [7]: 67%
83 ± 6%,–,CCCCCCCOC(=O)c1ccc(O)cc1 [heptylparaben],inhibition at 20 µM [6]: 76%; IC50 [8]: 1.8 µM
37 ± 5%,37 ± 6%,CCCOC(=O)c1ccc(O)cc1 [propylparaben],–
